# Reference: US12043632B2, “6-heteroaryloxy benzimidazoles and azabenzimidazoles as JAK2 inhibitors” (Ajax Therapeutics, Inc., priority 2020, dated 2024)
# Biological target: T1, JAK2 (JH1domain-catalytic, Y1007F,Y1008F) kinase (Homo sapiens, UniProt O60674, Y1007F/Y1008F)
# T1 construct: JAK2 (JH1domain-catalytic, Y1007F,Y1008F) kinase was expressed as N-terminal fusion; made in house; host or cells: transiently transfected HEK293 cells
# Assay: JAK2 JH1 Domain Binding Assay
# Details: qPCR readout
# T1 sequence (O60674 849-1124 Y1007F/Y1008F limits assumed): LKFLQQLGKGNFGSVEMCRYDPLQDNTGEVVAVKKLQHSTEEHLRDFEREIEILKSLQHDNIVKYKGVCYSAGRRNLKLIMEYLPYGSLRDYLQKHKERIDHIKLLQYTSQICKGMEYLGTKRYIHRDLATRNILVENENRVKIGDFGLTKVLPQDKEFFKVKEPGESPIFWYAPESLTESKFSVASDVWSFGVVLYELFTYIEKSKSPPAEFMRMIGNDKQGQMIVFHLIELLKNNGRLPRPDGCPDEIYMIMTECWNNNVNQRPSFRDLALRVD
row,SMILES,Kd [nM]
1,"CNc1nccn2ncc(Oc3cnc4nc(Nc5cc(CN6CCCC6)cc(C(F)(F)F)c5)n(C)c4c3Cl)c12 [Example I-284, 7-chloro-1-methyl-6-((4-(methylamino)pyrazolo[1,5-a]pyrazin-3-yl)oxy)-N-(3-(pyrrolidin-1-ylmethyl)-5-(trifluoromethyl)phenyl)-1H-imidazo[4,5-b]pyridin-2-amine]",10 to 50
2,"CN(C)[C@H]1CCN(Cc2cc(C(F)(F)F)cc(Nc3nc4ncc(Oc5cnn6ccncc56)c(Cl)c4n3C)c2F)C1 [Example I-285, (S)-7-chloro-N-(3-((3-(dimethylamino)pyrrolidin-1-yl)methyl)-2-fluoro-5-(trifluoromethyl)phenyl)-1-methyl-6-(pyrazolo[1,5-a]pyrazin-3-yloxy)-1H-imidazo[4,5-b]pyridin-2-amine]",10 to 50
3,"CNc1nccn2ncc(Oc3cnc4nc(Nc5cc(CN6CC[C@H](N(C)C)C6)cc(C(F)(F)F)c5)n(C)c4c3Cl)c12 [Example I-286, (S)-7-chloro-N-(3-((3-(dimethylamino)pyrrolidin-1-yl)methyl)-5-(trifluoromethyl)phenyl)-1-methyl-6-((4-(methylamino)pyrazolo[1,5-a]pyrazin-3-yl)oxy)-1H-imidazo[4,5-b]pyridin-2-amine]",10 to 50
4,"Cc1nc(Nc2nc3ncc(Oc4cnn5ccncc45)c(Cl)c3n2C)nc(C)c1N1CCCC1 [Example I-287, 7-chloro-N-(4,6-dimethyl-5-(pyrrolidin-1-yl)pyrimidin-2-yl)-1-methyl-6-(pyrazolo[1,5-a]pyrazin-3-yloxy)-1H-imidazo[4,5-b]pyridin-2-amine]",10 to 50
5,"Cn1cc(C(F)(F)F)cc(Nc2nc3ncc(Oc4cnc5[nH]cc(F)c5c4)c(Cl)c3n2C)c1=O [Example I-288, 3-((7-chloro-6-((3-fluoro-1H-pyrrolo[2,3-b]pyridin-5-yl)oxy)-1-methyl-1H-imidazo[4,5-b]pyridin-2-yl)amino)-1-methyl-5-(trifluoromethyl)pyridin-2(1H)-one]",10 to 50
6,"Cn1cc(C(F)(F)F)cc(Nc2nc3ncc(Oc4cnc5[nH]cc(F)c5c4)c(C#N)c3n2C)c1=O [Example I-289, 6-((3-fluoro-1H-pyrrolo[2,3-b]pyridin-5-yl)oxy)-1-methyl-2-((1-methyl-2-oxo-5-(trifluoromethyl)-1,2-dihydropyridin-3-yl)amino)-1H-imidazo[4,5-b]pyridine-7-carbonitrile]",10 to 50
7,"Cc1cc2cc(Oc3cnc4nc(Nc5cc(C(F)(F)F)cn(C)c5=O)n(C)c4c3C#N)cnc2[nH]1 [Example I-290, 1-methyl-6-((2-methyl-1H-pyrrolo[2,3-b]pyridin-5-yl)oxy)-2-((1-methyl-2-oxo-5-(trifluoromethyl)-1,2-dihydropyridin-3-yl)amino)-1H-imidazo[4,5-b]pyridine-7-carbonitrile]",10 to 50
8,"COc1ccc2c(Oc3cnc4nc(Nc5cc(C(F)(F)F)cn(C)c5=O)n(C)c4c3C#N)cnn2c1 [Example I-291, 6-((6-methoxypyrazolo[1,5-a]pyridin-3-yl)oxy)-1-methyl-2-((1-methyl-2-oxo-5-(trifluoromethyl)-1,2-dihydropyridin-3-yl)amino)-1H-imidazo[4,5-b]pyridine-7-carbonitrile]",< 10
9,"Cn1cc(C(F)(F)F)cc(Nc2nc3ncc(Oc4cnn5cc(C#N)ccc45)c(Cl)c3n2C)c1=O [Example I-292, 3-((7-chloro-1-methyl-2-((1-methyl-2-oxo-5-(trifluoromethyl)-1,2-dihydropyridin-3-yl)amino)-1H-imidazo[4,5-b]pyridin-6-yl)oxy)pyrazolo[1,5-a]pyridine-6-carbonitrile]",< 10
10,"Cc1cc2cc(Oc3cnc4nc(Nc5cc(C(F)(F)F)cn(C)c5=O)n(C)c4c3Cl)cnc2[nH]1 [Example I-293, 3-((7-chloro-1-methyl-6-((2-methyl-1H-pyrrolo[2,3-b]pyridin-5-yl)oxy)-1H-imidazo[4,5-b]pyridin-2-yl)amino)-1-methyl-5-(trifluoromethyl)pyridin-2(1H)-one]",10 to 50
11,"Cn1cc(C(F)(F)F)cc(Nc2nc3ncc(Oc4cnc5[nH]c(C6CC6)cc5c4)c(Cl)c3n2C)c1=O [Example I-294, 3-((7-chloro-6-((2-cyclopropyl-1H-pyrrolo[2,3-b]pyridin-5-yl)oxy)-1-methyl-1H-imidazo[4,5-b]pyridin-2-yl)amino)-1-methyl-5-(trifluoromethyl)pyridin-2(1H)-one]",10 to 50
12,"Cn1c(Nc2cc(C(F)(F)F)cn([C@H]3C[C@H](O)C3)c2=O)nc2ncc(Oc3cnn4cccc(F)c34)c(Cl)c21 [Example I-295, trans-3-((7-chloro-6-((4-fluoropyrazolo[1,5-a]pyridin-3-yl)oxy)-1-methyl-1H-imidazo[4,5-b]pyridin-2-yl)amino)-1-(3-hydroxycyclobutyl)-5-(trifluoromethyl)pyridin-2(1H)-one]",10 to 50
13,"Cn1cc(C(F)(F)F)cc(Nc2nc3ncc(Oc4cnc5[nH]c(C6CC6)cc5c4)c(C#N)c3n2C)c1=O [Example I-296, 6-((2-cyclopropyl-1H-pyrrolo[2,3-b]pyridin-5-yl)oxy)-1-methyl-2-((1-methyl-2-oxo-5-(trifluoromethyl)-1,2-dihydropyridin-3-yl)amino)-1H-imidazo[4,5-b]pyridine-7-carbonitrile]",10 to 50
14,"Cn1c(Nc2cc(C(F)(F)F)cn([C@H]3C[C@H](O)C3)c2=O)nc2ncc(Oc3cnn4cccc(F)c34)c(C#N)c21 [Example I-297, trans-6-((4-fluoropyrazolo[1,5-a]pyridin-3-yl)oxy)-2-((1-(3-hydroxycyclobutyl)-2-oxo-5-(trifluoromethyl)-1,2-dihydropyridin-3-yl)amino)-1-methyl-1H-imidazo[4,5-b]pyridine-7-carbonitrile]",< 10
15,"Cn1c(Nc2ccc(CN3CCCOCC3)c(C(F)(F)F)c2)nc2ncc(Oc3cnn4ccncc34)c(Cl)c21 [Example I-298, N-(4-((1,4-oxazepan-4-yl)methyl)-3-(trifluoromethyl)phenyl)-7-chloro-1-methyl-6-(pyrazolo[1,5-a]pyrazin-3-yloxy)-1H-imidazo[4,5-b]pyridin-2-amine]",< 10
16,"COc1n[nH]c2ncc(Oc3cnc4nc(Nc5cc(C(F)(F)F)cn(C)c5=O)n(C)c4c3C#N)cc12 [Example I-299, 6-((3-methoxy-1H-pyrazolo[3,4-b]pyridin-5-yl)oxy)-1-methyl-2-((1-methyl-2-oxo-5-(trifluoromethyl)-1,2-dihydropyridin-3-yl)amino)-1H-imidazo[4,5-b]pyridine-7-carbonitrile]",< 10
17,"Cn1cc(C(F)(F)F)cc(Nc2nc3ncc(Oc4cnc5[nH]cc(C#N)c5c4)c(C#N)c3n2C)c1=O [Example I-300, 6-((3-cyano-1H-pyrrolo[2,3-b]pyridin-5-yl)oxy)-1-methyl-2-((1-methyl-2-oxo-5-(trifluoromethyl)-1,2-dihydropyridin-3-yl)amino)-1H-imidazo[4,5-b]pyridine-7-carbonitrile]",50 to 1000
18,"CCN1CCCN(Cc2ccc(Nc3nc4ncc(Oc5cnn6ccncc56)c(Cl)c4n3C)cc2C(F)(F)F)CC1 [Example I-301, 7-chloro-N-(4-((4-ethyl-1,4-diazepan-1-yl)methyl)-3-(trifluoromethyl)phenyl)-1-methyl-6-(pyrazolo[1,5-a]pyrazin-3-yloxy)-1H-imidazo[4,5-b]pyridin-2-amine]",< 10
19,"CNc1ccc2c(Oc3cnc4nc(Nc5cc(C(F)(F)F)cn(C)c5=O)n(C)c4c3C#N)cnn2c1 [Example I-302, 1-methyl-2-((1-methyl-2-oxo-5-(trifluoromethyl)-1,2-dihydropyridin-3-yl)amino)-6-((6-(methylamino)pyrazolo[1,5-a]pyridin-3-yl)oxy)-1H-imidazo[4,5-b]pyridine-7-carbonitrile]",10 to 50
20,"CNc1ccc2c(Oc3cnc4nc(Nc5cc(C(F)(F)F)cn(C)c5=O)n(C)c4c3Cl)cnn2c1 [Example I-303, 3-((7-chloro-1-methyl-6-((6-(methylamino)pyrazolo[1,5-a]pyridin-3-yl)oxy)-1H-imidazo[4,5-b]pyridin-2-yl)amino)-1-methyl-5-(trifluoromethyl)pyridin-2(1H)-one]",< 10
21,"CNc1cn2ncc(Oc3cnc4nc(Nc5cc(C(F)(F)F)cn(C)c5=O)n(C)c4c3Cl)c2cn1 [Example I-304, 3-((7-chloro-1-methyl-6-((6-(methylamino)pyrazolo[1,5-a]pyrazin-3-yl)oxy)-1H-imidazo[4,5-b]pyridin-2-yl)amino)-1-methyl-5-(trifluoromethyl)pyridin-2(1H)-one]",< 10
22,"CNc1cn2ncc(Oc3cnc4nc(Nc5cc(CN6CC[C@H](OC)C6)cc(C(F)(F)F)c5)n(C)c4c3Cl)c2cn1 [Example I-307, (S)-7-chloro-N-(3-((3-methoxypyrrolidin-1-yl)methyl)-5-(trifluoromethyl)phenyl)-1-methyl-6-((6-(methylamino)pyrazolo[1,5-a]pyrazin-3-yl)oxy)-1H-imidazo[4,5-b]pyridin-2-amine]",50 to 1000
23,"CNc1cn2ncc(Oc3cnc4nc(Nc5cc(CN6CC[C@@H](OC)C6)cc(C(F)(F)F)c5)n(C)c4c3Cl)c2cn1 [Example I-308, (R)-7-chloro-N-(3-((3-methoxypyrrolidin-1-yl)methyl)-5-(trifluoromethyl)phenyl)-1-methyl-6-((6-(methylamino)pyrazolo[1,5-a]pyrazin-3-yl)oxy)-1H-imidazo[4,5-b]pyridin-2-amine]",10 to 50
24,"CNc1cn2ncc(Oc3cnc4nc(Nc5nn6c(c5F)COC(C)(C)C6)n(C)c4c3Cl)c2cn1 [Example I-309, N-(7-chloro-1-methyl-6-((6-(methylamino)pyrazolo[1,5-a]pyrazin-3-yl)oxy)-1H-imidazo[4,5-b]pyridin-2-yl)-3-fluoro-6,6-dimethyl-6,7-dihydro-4H-pyrazolo[5,1-c][1,4]oxazin-2-amine]",< 10
25,"CNc1cn2ncc(Oc3cnc4nc(Nc5cc(C(F)(F)F)n(C6CC7(COC7)C6)n5)n(C)c4c3Cl)c2cn1 [Example I-310, N-(1-(2-oxaspiro[3.3]heptan-6-yl)-5-(trifluoromethyl)-1H-pyrazol-3-yl)-7-chloro-1-methyl-6-((6-(methylamino)pyrazolo[1,5-a]pyrazin-3-yl)oxy)-1H-imidazo[4,5-b]pyridin-2-amine]",50 to 1000
